Drawing on ChEMBL document CHEMBL3817844 (Medchemcomm, 2016), this text covers EC50 and IC50 for two compounds.

By EC50 is commonly meant the concentration at which the effect is half-maximal. In general, IC50 refers to the point on the concentration scale where inhibition reaches its midpoint.

In assay [1] the test system is Schistosoma mansoni. The experiment in a line: Antischistosomal activity against adult female Schistosoma mansoni BH derived from infected Swiss mouse assessed as reduction in motility measured after 48 hrs by automated image-based analysis. Type of assay: functional, organism-based.
For assay [2], the system named is Schistosoma mansoni. The assay is described as follows: Antischistosomal activity against adult female Schistosoma mansoni BH derived from infected Swiss mouse assessed as reduction in motility measured after 24 hrs by automated image-based analysis. The format is functional, organism-based.
Assay [3] deals with Schistosoma mansoni. The assay is described as follows: Antischistosomal activity against adult female Schistosoma mansoni BH derived from infected Swiss mouse assessed as reduction in motility measured immediately after treatment by automated image-based analysis. The format is functional, organism-based.
Assay [4] concerns Schistosoma mansoni. The assay is described as follows: Antischistosomal activity against adult female Schistosoma mansoni BH derived from infected Swiss mouse assessed as reduction in motility measured after 72 hrs by automated image-based analysis. The format is functional, organism-based.
The subject of assay [5] is Schistosoma mansoni. The assay is described as follows: Antischistosomal activity against adult male Schistosoma mansoni BH derived from infected Swiss mouse assessed as reduction in motility measured after 48 hrs by automated image-based analysis. The format is functional, organism-based.
Assay [6] concerns Schistosoma mansoni. The assay is described as follows: Antischistosomal activity against adult male Schistosoma mansoni BH derived from infected Swiss mouse assessed as reduction in motility measured after 72 hrs by automated image-based analysis. The format is functional, organism-based.
Assay [7] deals with Schistosoma mansoni. The experiment in a line: Antischistosomal activity against newly transformed Schistosoma mansoni BH assessed as decrease in viability after 72 hrs by resazurin-based spectrophotometric assay. Type of assay: functional, organism-based. Background: The colour change of resazurin is a common sign of viable cells or microbes.
Assay [8] has as its system Schistosoma mansoni. The experiment in a line: Antischistosomal activity against adult male Schistosoma mansoni BH derived from infected Swiss mouse assessed as reduction in motility measured after 24 hrs by automated image-based analysis. Type of assay: functional, organism-based.
The nature of assay [9]: Inhibition of Schistosoma mansoni SERT.
Assay [10] deals with Schistosoma mansoni. The assay is described as follows: Antischistosomal activity against adult male Schistosoma mansoni BH derived from infected Swiss mouse assessed as reduction in motility measured immediately after treatment by automated image-based analysis. The format is functional, organism-based.

Consider `Fc1ccc([C@@H]2CCNC[C@H]2COc2ccc3c(c2)OCO3)cc1` [PAROXETINE], for which the EC50 in the assay on Schistosoma mansoni [1] was determined as 11.5 µM; in the assay with Schistosoma mansoni [2], 9.9 µM; with Schistosoma mansoni [3] it was 17.4 µM; with Schistosoma mansoni [4] it was 11.9 µM; in the assay on Schistosoma mansoni [5] it was 3.8 µM; in the assay with Schistosoma mansoni [6] it was 2.7 µM. The results for the EC50 in the assay on Schistosoma mansoni [8] and with Schistosoma mansoni [10] were 5.1 µM and 23.5 µM, respectively. Moreover, the IC50 was determined as 2.5 µM with Schistosoma mansoni [7] and 0.09 µM in assay [9].
For `O=C(C1CCCCC1)N1CC(=O)N2CCc3ccccc3C2C1` (stereo unspecified) [PRAZIQUANTEL], the EC50 in the assay with Schistosoma mansoni [2] is 0.3 µM; in the assay on Schistosoma mansoni [3], 0.13 µM; in the assay with Schistosoma mansoni [4], 0.66 µM; in the assay on Schistosoma mansoni [5], 0.13 µM; in the assay with Schistosoma mansoni [8], 0.12 µM; in the assay with Schistosoma mansoni [10], 0.11 µM.
